Molecules are shown by their SMILES.

The experiment addresses T1, human O-GlcNAcase (hOGA) (Homo sapiens, UniProt O60502).
T1 construct: gene OGA; residues 53–916, GST fusion
T1 sequence (O60502 53-916): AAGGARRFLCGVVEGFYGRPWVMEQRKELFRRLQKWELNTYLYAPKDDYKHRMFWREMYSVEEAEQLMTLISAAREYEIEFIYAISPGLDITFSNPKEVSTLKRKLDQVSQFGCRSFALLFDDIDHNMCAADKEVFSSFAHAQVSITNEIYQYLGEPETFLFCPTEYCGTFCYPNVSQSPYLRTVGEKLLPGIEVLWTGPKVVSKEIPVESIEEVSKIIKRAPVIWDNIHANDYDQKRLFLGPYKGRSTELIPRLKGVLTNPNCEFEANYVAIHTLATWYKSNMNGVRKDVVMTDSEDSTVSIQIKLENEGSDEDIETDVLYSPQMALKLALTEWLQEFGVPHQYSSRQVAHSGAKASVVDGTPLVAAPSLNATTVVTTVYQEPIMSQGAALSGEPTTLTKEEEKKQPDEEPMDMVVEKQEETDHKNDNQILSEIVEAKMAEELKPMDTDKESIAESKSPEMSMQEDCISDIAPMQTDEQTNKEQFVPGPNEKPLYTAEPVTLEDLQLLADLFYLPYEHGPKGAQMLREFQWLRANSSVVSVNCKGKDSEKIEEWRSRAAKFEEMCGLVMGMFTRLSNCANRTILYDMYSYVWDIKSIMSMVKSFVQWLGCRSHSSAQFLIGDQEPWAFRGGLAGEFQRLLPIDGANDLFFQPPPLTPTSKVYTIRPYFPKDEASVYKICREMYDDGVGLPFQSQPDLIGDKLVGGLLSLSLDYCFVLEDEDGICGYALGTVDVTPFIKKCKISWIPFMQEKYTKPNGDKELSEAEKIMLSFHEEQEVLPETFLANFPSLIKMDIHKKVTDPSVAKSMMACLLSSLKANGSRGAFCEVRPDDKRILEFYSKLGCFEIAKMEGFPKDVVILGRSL
The experiment can be described thus: steady-state kinetics with fluorogenic 4MU-GlcNAc, Lineweaver-Burk, competitive inhibition fit. It counts as biochemical.

In turn, `CN(N=O)C(=O)N[C@H]1C(O)O[C@H](CO)[C@@H](O)[C@@H]1O` (stereo partly shown) [STZ, streptozotocin] gave a Ki of 64 ± 3 µM.

Source of the values: paper PMC2568864, “Chemical Dissection of the Link between Streptozotocin, O-GlcNAc, and Pancreatic Cell Death” (Chemistry & Biology, 2008).
